The text below walks through data of patent publication US20260021095A1, “BIFUNCTIONAL COMPOUNDS CONTAINING PYRIDO[2,3-d]PYRIMIDIN-7(8H)-ONE DERIVATIVES FOR DEGRADING CYCLIN-DEPENDENT KINASE 2 VIA UBIQUITIN PROTEASOME PATHWAY” (NIKANG THERAPEUTICS, INC., priority 2022, published 2026).

Experiment [1] addresses T1, CDK2 (Homo sapiens, UniProt P24941).
T1 construct: High-Throughput Measurement of Cellular Endogenous CDK2; endogenous in cells; host or cells: OVCAR3
Nature of the experiment: Inhibition of CDK2: phospho-Rb (S807/811) HTRF measurement in OVCAR3 cells. The class given is cell-based. To be noted: 24 h compound treatment, HTRF phospho-RB S807/811, read-out: pRb OVCAR3 (μM), CDK2 IC50 in pRB(S807/811) assay. How it is done:
Phosphorylation of RB protein at S807/811 were measured using HTRF phospho-RB cellular kits (Cat #64RBS807PEG) from Cisbio.
On Day 1, OVCAR3 (CDK2 dependent cell line) cells were seeded into 96-well tissue-culture treated plates at 20,000 cells/well in 200 μL and incubated overnight at 37° C. in CO2 atmosphere. On Day 2, the cells were treated with test compounds at concentrations from 0.3 to 10,000 nM using HP D300 digital dispenser. Twenty-four hours after compound treatment, cell culture media was removed by flicking the plate and tapping the plate against clean paper towel. Immediately 30 μL 1× lysis buffer was supplemented from the kit and the plate was incubated at room temperature on shaker for 30 min. After homogenization by pipetting up and down, 8 μL cell lysate from 96-well cell culture plate was transferred to 384-well small volume white detection plate. 2 μL premixed detection solution was added and the plate was covered with sealer. […] Detection plates were incubated for 4 h at room temperature and read on ClarioStar (BMG Labtech) in TR-FRET mode ([…]). […] Half maximal inhibition concentration (IC50) values are calculated with a four-parameter logistic fit using GraphPad Prism (version 8; La Jolla, CA). […]
A general note: In TR-FRET formats the signal depends on donor and acceptor labels being close together.

Experiment [2] addresses T1, CDK2. Put plainly: High-throughput HTRF measurement of cellular endogenous CDK2 (degradation) in OVCAR3 cells. To be noted: HTRF total CDK2, read-out: DC50 OVCAR3_6 h. The class given is cell-based. How it is done:
Effects of compounds on cellular CDK2 level can be monitored by a high-throughput HTRF assay.
To determine half maximal degradation concentration (DC50) values of compounds, cellular CDK2 level was measured in 96-well format using HTRF total CDK2 cellular kit (Cat #64CDK2TPEG) from Cisbio.
On Day 1, OVCAR3 cells were seeded into 96-well tissue-culture treated plates at 20,000 cells/well in 200 μL and incubated overnight at 37° C. in C02 atmosphere. On Day 2 cells were treated with compounds at concentration ranging from 0.3 to 10,000 nM using HP D300 digital dispenser. […] Immediately 30 μL 1× lysis buffer was supplemented from the kit and the plate was incubated at room temperature on shaker for 30 min. After homogenization by pipetting up and down, 8 μL cell lysate from 96-well cell culture plate was transferred to 384-well small volume white detection plate. 2 μL premixed detection solution was added and the plate was covered with sealer. […] Detection plates were incubated overnight at room temperature and read on ClarioStar (BMG Labtech) in TR-FRET mode (665 nM and 620 nM). […] Half maximal degradation concentration (DC50) values were calculated with a four-parameter logistic fit using GraphPad Prism (version 8; La Jolla, CA).

As for `Cn1nc(N2CCC(=O)NC2=O)c2ccc(C3CCN(Cc4cccc(S(=O)(=O)N5CC[C@H](Nc6ncc7ccc(=O)n(C)c7n6)[C@H](F)C5)c4)CC3)cc21` (racemic) [compound 1, Rac-1-(6-(1-(3-(((3R,4S)-3-fluoro-4-((8-methyl-7-oxo-7,8-dihydropyrido[2,3-d]pyrimidin-2-yl)amino)piperidin-1-yl)sulfonyl)benzyl)-piperidin-4-yl)-1-methyl-1H-indazol-3-yl)-dihydropyrimidine-2,4(1H,3H)-dione], the IC50 on CDK2 [1] lay within 0.1 to 1 µM. Further, the half-maximal degradation concentration (DC50) at CDK2 [2] came to 41.9 nM.

For `Cn1nc(N2CCC(=O)NC2=O)c2ccc(C3CCN(Cc4cccc(S(=O)(=O)N5CC[C@H](Nc6ncc7ccc(=O)n(CC(F)(F)F)c7n6)[C@H](F)C5)c4)CC3)cc21` (racemic) [compound 2, Rac-1-(6-(1-(3-(((3R,4S)-3-fluoro-4-((7-oxo-8-(2,2,2-trifluoroethyl)-7,8-dihydropyrido[2,3-d]pyrimidin-2-yl)amino)piperidin-1-yl)-sulfonyl)benzyl)piperidin-4-yl)-1-methyl-1H-indazol-3-yl)dihydropyrimidine-2,4(1H,3H)-dione], on CDK2 [1], the IC50 was 1 to 10 µM. In addition, the 50% degradation concentration (DC50) on CDK2 [2] was found to be 1310 nM.

The term DC50 denotes the concentration at which degradation of the target reaches its halfway point.
